# Data reported in US20230126447A1, “OCULAR DRUG DEPOT FOR COMPLEMENT-MEDIATED DISORDERS” (priority 2020, published 2023).
# Where two headings read alike, the source gives them in different places.
# Tests used:
# [1] = In vitro binding to synthetic melanin; conditions: synthetic melanin 50 μg/mL, PBS, 37° C., 1 hour
# Experimental: (§1) […] The melanin solution was stored in the dark at 37° C. until use.
# Immediately after the assay, samples were added to an equal volume of warm PBS, aliquots (3 μL each) were removed, added to 100 μL of acetonitrile containing carbutamide as internal standard, and then diluted with water (197 μL). These time-zero samples, prepared in PBS only, were also used as calibration standards.
# (§2) The assay plates containing samples with and without melanin were incubated in the dark with shaking at 37° C. for 1 hour. Following incubation, the samples were centrifuged for 15 minutes at approximately 4000 rpm at 37° C. to sediment the melanin. Sample supernatant (3 μL) was added to 100 μL of acetonitrile containing the internal standard and then diluted with water (197 μL).
# The column was set to a temperature of 55° C. […]
# Analytes and internal standards were detected using an Applied Biosystems Sciex API-5500 triple quadrupole mass spectrometer with Agilent 1260 Infinity Binary Pump and Apricot Designs ADDA High-Speed Dual Arm Autosampling System. The instrument was equipped with an electrospray ionization source (600° C.) operated in the positive ion mode. Analytes and internal standards for all samples were monitored in the multiple-reaction-monitoring scan mode.
# [2] = Ocular tissue and plasma pharmacokinetics, 15 mg/kg oral, New Zealand White rabbits (Example 3/5); format: in vivo
# [3] = as above; format: in vivo; remark: listed apart in the source
# Experimental: Study design including group designation and dose levels are outlined in Table 4. […] Fifteen Dutch Belted and 5 New Zealand White rabbits were used as un-dosed controls. […] The dose volume was 5 mL/kg/dose for all groups. Safety was assessed with toxicological and ophthalmic examinations including slit lamp biomicroscopy, indirect ophthalmoscopy, rebound tonometry, and ultrasonic corneal pachymetry.
# Analyst® software (Version 1.6.2) was used to capture the LC-MS/MS data and integrate the peak areas. Calibration standards and QCs were prepared in a blank solution of 75%:25% acetonitrile:water (v:v), ranging from 10 ng/mL to 10,000 ng/mL. Matrix matched standard and QC samples were prepared by mixing 2 μL of standard or QC sample above with 18 μL of appropriate ocular tissue or plasma. The final calibration standards ranged from 1 ng/mL to 1000 ng/mL. All plasma, retina, choroid-RPE, optic nerve, and vitreous humor samples were analyzed in a single run. Iris-ciliary body samples were analyzed in two runs due to a need for sample dilution. […] Dilution QCs were prepared at 5000 ng/mL where appropriate. Two sets of standards were used to bracket the analytical run at the beginning and end of the run. Three sets of QCs were included the analytical runs. All concentrations in ocular matrices are reported as ng/g based on the assumed density of 1 g/mL.
# 1, 6, 24, 96, 168, and 240 hours post-dose on Day 15, with the eyes collected at the same time as blood sampling. A single blood sample was taken from Groups 4 and 5 at sacrifice. Plasma, vitreous humor (VH), retina, choroid-retina pigmented epithelium (Choroid-RPE), optic nerve (ON), and iris-ciliary body (I-CB) were analyzed by LC-MS/MS to quantify test article concentrations. The lower limit of quantitation (LLOQ) in plasma and vitreous humor was 1.0 ng/mL. The LLOQ was 6.0 ng/g in retina, Choroid-RPE, and I-CB and the optic nerve LLOQ was 15 ng/g, assuming tissue density of 1 g/mL where relevant.
# Study design including group designation and dose levels are outlined in Table 18.
# [4] = Stability under melanin binding assay conditions; conditions: 1 h
# Experimental: as §1, §2
# % Stability=Mean Total Conc. (μM) after 1 Hour/Mean Total Conc. (μM) at Time Zero×100%
# [5] = Multiple ascending dose (MAD) pharmacokinetics in humans; format: in vivo
# [6] = Choroid-RPE, NZW rabbit, 15 mg/kg single dose, Day 1
# [7] = NZW rabbit, 15 mg/kg single oral dose, Day 1, 0 h, 15 mg/kg
# [8] = NZW rabbit, 15 mg/kg single oral dose, Day 1, 6 h, 15 mg/kg
# [9] = NZW rabbit, 15 mg/kg single oral dose, Day 1, 24 h
# [10] = NZW rabbit, 15 mg/kg single oral dose, Day 1, 24 h, 15 mg/kg
# [11] = NZW rabbit, 15 mg/kg single oral dose, Day 1, 96 h
# [12] = NZW rabbit, 15 mg/kg single oral dose, Day 1, 96 h, 15 mg/kg
# [13] = NZW rabbit, 15 mg/kg single oral dose, Day 1, 168 h
# [14] = NZW rabbit, 15 mg/kg single oral dose, Day 1, 168 h, 15 mg/kg
# [15] = NZW rabbit, 15 mg/kg single oral dose, Day 1, 240 h
# [16] = NZW rabbit, 15 mg/kg single oral dose, Day 1, 240 h, 15 mg/kg
# [17] = NZW rabbits, Day 1, 15 mg/kg single dose, 0 hr
# [18] = NZW rabbits, Day 1, 15 mg/kg single dose, 96 hr
# [19] = NZW rabbits, Day 1, 15 mg/kg single dose, 168 hr
# [20] = NZW rabbits, Day 1, 15 mg/kg single dose, 240 hr
# [21] = New Zealand White, po, Iris-Ciliary Body, NZW rabbit, 15 mg/kg single dose, Day 1
# [22] = New Zealand White, po, Vitreous Humor, NZW rabbit, 15 mg/kg single dose, Day 1
# [23] = plasma, NZW rabbit, 15 mg/kg single dose, Day 1
# [24] = retina, NZW rabbit, 15 mg/kg single dose, Day 1
structure (smiles),measurement,setting,value
"CC(=O)c1nn(CC(=O)N2C[C@H](F)C[C@H]2C(=O)Nc2cccc(Br)n2)c2ccc(-c3cnc(C)nc3)cc12 [Compound 1, (2S,4R)-1-(2-(3-Acetyl-5-(2-methylpyrimidin-5-yl)-1H-indazol-1-yl)acetyl)-N-(6-bromopyridin-2-yl)-4-fluoropyrrolidine-2-carboxamide]",Bmax (binding capacity),[1],127 nmol/mg melanin
same,MRTlast,[2]; [6],5.87 h
same,Tlast,[2]; [6],24 h
same,Tlast,"[2]; Iris-Ciliary Body, NZW rabbit, 15 mg/kg single dose, Day 1",1 h
same,Mean Vitreous Humor concentration,"[2]; NZW rabbit, 15 mg/kg single oral dose, Day 1, 0 h",BLQ^a
same,Mean Choroid-RPE concentration,[2]; [7],BLQ^a and BLQ
same,Mean Iris-Ciliary Body concentration,[2]; [7],BLQ^a and BLQ
same,Mean plasma concentration,[2]; [7],BLQ^a and BLQ
same,Mean retina concentration,[2]; [7],BLQ^a and BLQ
same,Mean Aqueous Humor concentration,"[2]; NZW rabbit, 15 mg/kg single oral dose, Day 1, 6 h",BLQ^a
same,Mean Iris-Ciliary Body concentration,[2]; [8],BLQ^a and BLQ
same,Mean retina concentration,[2]; [8],26 ng/g
same,Mean Aqueous Humor concentration,[2]; [9],BLQ^a
same,Mean Vitreous Humor concentration,[2]; [9],BLQ^a
same,Mean Iris-Ciliary Body concentration,[2]; [10],BLQ^a and BLQ
same,Mean retina concentration,[2]; [10],BLQ^a and BLQ
same,Mean Aqueous Humor concentration,[2]; [11],BLQ^a
same,Mean Vitreous Humor concentration,[2]; [11],BLQ^a
same,Mean Choroid-RPE concentration,[2]; [12],BLQ^a and BLQ
same,Mean Iris-Ciliary Body concentration,[2]; [12],BLQ^a and BLQ
same,Mean plasma concentration,[2]; [12],BLQ^a and BLQ
same,Mean retina concentration,[2]; [12],BLQ^a and BLQ
same,Mean Aqueous Humor concentration,[2]; [13],BLQ^a
same,Mean Vitreous Humor concentration,[2]; [13],BLQ^a
same,Mean Choroid-RPE concentration,[2]; [14],BLQ^a and BLQ
same,Mean Iris-Ciliary Body concentration,[2]; [14],BLQ^a and BLQ
same,Mean retina concentration,[2]; [14],BLQ^a and BLQ
same,Mean Aqueous Humor concentration,[2]; [15],BLQ^a
same,Mean Choroid-RPE concentration,[2]; [16],BLQ^a and BLQ
same,Mean Iris-Ciliary Body concentration,[2]; [16],BLQ^a and BLQ
same,Mean plasma concentration,[2]; [16],BLQ^a and BLQ
same,Mean retina concentration,[2]; [16],BLQ^a and BLQ
same,Mean Choroid-RPE concentration,[2]; [17],BLQ
same,Mean retina concentration,[2]; [17],BLQ
same,Mean retina concentration,"[2]; NZW rabbits, Day 1, 15 mg/kg single dose, 24 hr",BLQ
same,Mean Choroid-RPE concentration,[2]; [18],BLQ
same,Mean Choroid-RPE concentration,[2]; [19],BLQ
same,Mean retina concentration,[2]; [19],BLQ
same,Mean Choroid-RPE concentration,[2]; [20],BLQ
same,Mean retina concentration,[2]; [20],BLQ
same,concentration at 1 h,"[2]; New Zealand White, aqueous humor, NZW rabbit, 15 mg/kg single oral dose, Day 1, 1 h, read-out: Mean Aqueous Humor concentration",4 ng/mL
same,concentration at 1 h,"[2]; New Zealand White, choroid-RPE, NZW rabbit, 15 mg/kg single oral dose, Day 1, 1 h, read-out: Mean Choroid-RPE concentration",172 ng/g
same,concentration at 6 h,"[2]; New Zealand White, choroid-RPE, NZW rabbit, 15 mg/kg single oral dose, Day 1, 6 h, read-out: Mean Choroid-RPE concentration",31.5 ng/g
same,concentration at 24 h,"[2]; New Zealand White, choroid-RPE, NZW rabbit, 15 mg/kg single oral dose, Day 1, 24 h, read-out: Mean Choroid-RPE concentration",15.1 ng/g
same,concentration at 1 h,"[2]; New Zealand White, plasma, NZW rabbit, 15 mg/kg single oral dose, Day 1, 1 h, read-out: Mean plasma concentration",310 ng/mL
same,concentration at 6 h,"[2]; New Zealand White, plasma, NZW rabbit, 15 mg/kg single oral dose, Day 1, 6 h, read-out: Mean plasma concentration",35.1 ng/mL
same,concentration at 24 h,"[2]; New Zealand White, plasma, NZW rabbit, 15 mg/kg single oral dose, Day 1, 24 h, read-out: Mean plasma concentration",11.1 ng/mL
same,Cmax,[2]; [21],117 ng/g
same,MRT last,[2]; [21],1 h
same,AUC(0-t),[2]; [22],30.3 ng·h/mL
same,Cmax,[2]; [22],7.61 ng/mL
same,Cmax,"[2]; New Zealand White, po, plasma, NZW rabbit, 15 mg/kg single dose, Day 1",310 ng/mL
same,concentration at 1 h,"[2]; New Zealand White, rabbit, choroid-RPE, oral, NZW rabbits, Day 1, 15 mg/kg single dose, 1 hr, read-out: Mean Choroid-RPE Concentration",172 ng/g
same,concentration at 6 h,"[2]; New Zealand White, rabbit, choroid-RPE, oral, NZW rabbits, Day 1, 15 mg/kg single dose, 6 hr, read-out: Mean Choroid-RPE Concentration",31.5 ng/g
same,concentration at 24 h,"[2]; New Zealand White, rabbit, choroid-RPE, oral, NZW rabbits, Day 1, 15 mg/kg single dose, 24 hr, read-out: Mean Choroid-RPE Concentration",15.1 ng/g
same,concentration at 1 h,"[2]; New Zealand White, rabbit, retina, oral, NZW rabbits, Day 1, 15 mg/kg single dose, 1 hr, read-out: Mean Retina Concentration",200 ng/g
same,concentration at 6 h,"[2]; New Zealand White, rabbit, retina, oral, NZW rabbits, Day 1, 15 mg/kg single dose, 6 hr, read-out: Mean Retina Concentration",26 ng/g
same,concentration at 1 h,"[2]; New Zealand White, retina, NZW rabbit, 15 mg/kg single oral dose, Day 1, 1 h, read-out: Mean retina concentration",200 ng/g
same,concentration at 6 h,"[2]; New Zealand White, retina, NZW rabbit, 15 mg/kg single oral dose, Day 1, 6 h, read-out: Mean retina concentration",26 ng/g
same,concentration at 1 h,"[2]; New Zealand White, vitreous humor, NZW rabbit, 15 mg/kg single oral dose, Day 1, 1 h, read-out: Mean Vitreous Humor concentration",7.61 ng/mL
same,concentration at 6 h,"[2]; New Zealand White, vitreous humor, NZW rabbit, 15 mg/kg single oral dose, Day 1, 6 h, read-out: Mean Vitreous Humor concentration",3 ng/mL
same,MRTlast,[2]; [23],4.01 h
same,Tlast,[2]; [23],24 h
same,MRTlast,[2]; [24],1.49 h
same,Tlast,[2]; [24],6 h
same,Mean Vitreous Humor concentration,[3]; [15],BLQ^a
same,Mean retina concentration,[3]; [18],BLQ
same,concentration at 0 h,"[3]; New Zealand White, aqueous humor, NZW rabbit, 15 mg/kg single oral dose, Day 1, 0 h",6.14 ng/mL
same,concentration at 1 h,"[3]; New Zealand White, iris-ciliary body, NZW rabbit, 15 mg/kg single oral dose, Day 1, 1 h",117 ng/g
same,MRT last,[3]; [22],2.24 h
same,Cmax,"[3]; New Zealand White, po, retina, NZW rabbit, 15 mg/kg single dose, Day 1",200 ng/g
same,Tlast,"[3]; Vitreous Humor, NZW rabbit, 15 mg/kg single dose, Day 1",6 h
same,AUClast,[3]; [23],1430 ng·h/mL
same,Mean Stability,[4],94.3%
same,Steady state conditions reached,[5]; MAD study,Day 2
same,Tmax,"[5]; human, in vivo, 200 to 800 mg BID and 75 mg TID, read-out: Median time to maximum concentration (Tmax)",1 to 2.3 h
